From patent US20230092490A1, “PHARMACEUTICAL COMPOSITIONS COMPRISING DASATINIB ANHYDROUS AND USES THEREOF” (ZENTIVA K.S., priority 2020, published 2023)
Where two headings read alike, the source gives them in different places.

How the values were obtained:
[1] = Preliminary bioequivalence study of DA1 vs. RP in eighty healthy subjects; assay type: in vivo, human; details: total study population
Protocol: First, a preliminary bioequivalence study assessed in-vivo absorption of DA1 and RP. This bioequivalence study and its results are summarized in Example 2, below, and data are shown in FIG. 3 to FIG. 6 for four exemplary subjects A to D in that study.
Example 3, together with corresponding Table 4, presents additional results from the clinical study of Example 2, comparing the bioavailability of DA1 vs RP.
A preliminary bioequivalence study in eighty (80) healthy subjects was conducted to test the in-vivo absorption of RP and DA1.
Additional data from the bioequivalence study of Example 2, which compared the bioequivalence of DA1 against the reference product (“RP”) are summarised in Table 4 below.

[2] = pH 2.6; cited from earlier work
[3] = cited from earlier work
[4] = in vivo; cited from earlier work
[5] = Oral bioavailability and pharmacokinetics of dasatinib monohydrate (background); details: human, in vivo, read-out: subjects exhibiting atypical pharmacokinetic profiles (reduced bioavailability, likely achlorhydria or hypochlorhydria)
[6] = administered 10 hours following the H2 antagonist famotidine
[7] = co-administration with aluminium hydroxide or magnesium hydroxide
[8] = single 100 mg dose 22 hours following a 4-day 40-mg omeprazole dose at steady state

Row | absorption across all subjects [1] | percentage of subjects with atypical pharmacokinetic profiles [5] | Compound | thermodynamic (equilibrium) solubility [2] | reduction of AUC [3, 6] | reduction of Cmax [3, 6] | reduction in Cmax [3, 7] | reduction of the area under the curve (AUC) [3, 7] | reduction of AUC [3, 8] | reduction of Cmax [3, 8] | time at which peak concentration is reached [4]
1 | absorbed in all subjects |  | Cc1nc(Nc2ncc(C(=O)Nc3c(C)cccc3Cl)s2)cc(N2CCN(CCO)CC2)n1 [Dasatinib anhydrous, N-(2-chloro-6-methylphenyl)-2-[[6-[4-(2-hydroxyethyl)-1-piperazinyl]-2-methyl-4-pyrimidinyl]amino]-5-thiazolecarboxamide] |  |  |  |  |  |  |  | 
2 |  | 3.5 to 7.5% | Cc1nc(Nc2ncc(C(=O)Nc3c(C)cccc3Cl)s2)cc(N2CCN(CCO)CC2)n1 [dasatinib monohydrate, N-(2-chloro-6-methylphenyl)-2-[[6-[4-(2-hydroxyethyl)-1-piperazinyl]-2-methyl-4-pyrimidinyl]amino]-5-thiazolecarboxamide] | 18.4 mg/mL | 61% | 63% | 58% | 55% | 43% | 42% | 1 to 2 h
